Measurements as given in ChEMBL document CHEMBL3507680, “University of Dundee, Gates Library screen for HepG2 cell viability”.

Test: Human HepG2 cell viability assay in 384 well format
Type: toxicity, cell-based
Design: dose 125 nL, time 70.5 hour; cytotoxicity at 70.5 h: concentration not given beside the values
Settings: HepG2 cells, read-out: Inhibition

SMILES	cytotoxicity at 70.5 h [%]
COC(=O)C1CCN(c2cc(C)nc(-c3ccncc3)n2)CC1	-8.27
Cc1cc(N2CCC(C(=O)N(C)C)CC2)nc(-c2ccncc2)n1	3.79
CCN(Cc1cccc2c1OCO2)C(=O)Nc1cn[nH]c1	-5.23
Cc1ccccc1OCC(O)CN1CCC(Cn2cccn2)CC1 (configuration not stated)	2.37
N#Cc1ccc(OCC(O)CN2CCC(Cn3cccn3)CC2)cc1 (configuration not stated)	-3.6
CCC(O)CN1CCN(C(=O)Cc2cc(C)ccc2OC)CC1 (configuration not stated)	-1.58
CCc1ccsc1C(=O)N1CCN(CC(C)O)CC1 (configuration not stated)	-2.62
CCn1cc(NC(=O)Nc2ccc3c(c2)OCCO3)cn1	-5.76
Cc1nc(CN(C)C2CCN(CCCc3ccccc3)C2)no1 (configuration not stated)	-2.23
COc1c(CNC2CCc3cc(F)ccc32)c(C(C)C)nn1C (configuration not stated)	16.8
CC(c1cccc(S(N)(=O)=O)c1)N(C)CCOC(C)(C)C (configuration not stated)	-2.34
CCC(O)CN1CCN(C(=O)Cc2ccc(OC)cc2OC)CC1 (configuration not stated)	0.587
Cc1cnn(CCNCc2nnc(-c3ccccc3)o2)c1	-1.2
Cc1cnn(CC2CCCN2CC(=O)Nc2cc(C)no2)c1 (configuration not stated)	-3.79
CC(c1cccc(S(N)(=O)=O)c1)N(C)CCCOc1ccccc1 (configuration not stated)	-4.57
Cc1cccc(C(=O)N2CCCN(Cc3cscn3)CC2)c1	-4.03
Cc1cnc(CN2CCC(N(C)Cc3noc(C4CC4)n3)C2)o1 (configuration not stated)	11.7
CCN1CCN(CCNC(=O)c2sc(C(C)C)nc2C)CC1	0.965
O=S(=O)(CCCN1CCCCC1Cn1cncn1)c1ccccc1 (configuration not stated)	-4.13
Cc1ccc(CN(C)C(=O)CN2CCOC(Cn3cccn3)C2)o1 (configuration not stated)	-3.39
NC(=O)CN1CCC(NC(=O)COc2ccc(Cl)c(Cl)c2)CC1	-2.35
CS(=O)(=O)N1CCC(NC(=O)COc2ccc3ccccc3c2)CC1	-1.61
O=C(CCOc1ccc(Br)cc1)N1CCN(c2cnccn2)CC1	24.8
Cc1cc(C(=O)NCC(C)N2CCc3ccccc32)on1 (configuration not stated)	7.49
CC(C)NC(=O)Nc1ccc(CNCc2ccc(OC(F)F)cc2)cc1	13.8
CCOc1ncccc1NC(=O)NC1CCN(c2ncccn2)CC1	2.59

SMILES	cytotoxicity at 70.5 h [%]
COC(=O)c1cccn1C1CCN(S(=O)(=O)c2ccccc2)CC1	3.76
O=C(CCOc1cccc(Cl)c1)N1CCN(c2cnccn2)CC1	22
CC(CNC(=O)c1cc(C2CC2)on1)N1CCc2ccccc21 (configuration not stated)	2.16
CCOC(=O)N1CCC(NC(=O)Nc2cccnc2OCC)CC1	6.34
CCOc1ncccc1NC(=O)NC1CCN(C(=O)C2CC2)CC1	3.99
CCOc1ncccc1NC(=O)NC1CCCN(S(C)(=O)=O)C1 (configuration not stated)	-0.949
CN(Cc1ccsc1)C(=O)CN1CCOC(Cn2cncn2)C1 (configuration not stated)	-1.49
Cc1cnn(CC2CCCN2C(=O)c2c(F)cccc2Cl)c1 (configuration not stated)	0.266
COc1c(C2CCCN2C(=O)c2cccnc2N(C)C)c(C)nn1C (configuration not stated)	0.616
COC(=O)c1cccn1C1CCN(CCN2C(=O)CCC2=O)CC1	-5.66
O=S(=O)(CCN1CCCC1Cn1cncn1)c1ccccc1 (configuration not stated)	-1.96
CN(CC(=O)N1CCCCC1c1nccs1)C1CC1 (configuration not stated)	28.5
Cc1nn(Cc2ccccc2)c(C)c1CNC1CCc2ncnn2C1 (configuration not stated)	0.852
Cc1nn(C)c(C)c1C1CCCN1Cc1nc2ccccc2o1 (configuration not stated)	-4.38
c1ccc(-n2cc(CNC3CCc4ncnn4C3)cn2)cc1 (configuration not stated)	-4.52
Clc1ccccc1Cn1cc(CNC2CCc3ncnn3C2)cn1 (configuration not stated)	-0.86
CCc1nccn1C1CCCN(C(=O)CCCc2ccccn2)C1 (configuration not stated)	-2.48
CC(=O)N(Cc1noc(C)n1)C1CCN(Cc2ccccn2)C1 (configuration not stated)	-8.37
O=C(Cc1cn2ccccc2n1)N1CCCC(n2ccnc2)C1 (configuration not stated)	-3.99
O=C(NCc1nnc2n1CCCCC2)N1CCc2ccccc2C1	1.11
O=C(NCc1nnc2n1CCC2)N1CCc2sccc2C1	-6.3
O=C(NCc1nnc2n1CCCC2)N1CCc2sccc2C1	-4.27
COc1c(CNCc2cccc(C(=O)N(C)C)c2)c(C)nn1C	5.09
CC(NC(=O)NCCc1ccc(Cl)s1)c1ccccn1 (configuration not stated)	-2.15
COc1c(CNCc2ccc(S(C)(=O)=O)cc2)c(C)nn1C	0.0381
CC(C)c1nccn1C1CCCN(C(=O)c2cc(C(N)=O)cs2)C1 (configuration not stated)	2.06

SMILES	cytotoxicity at 70.5 h [%]
O=C(c1ccc2c(c1)OCO2)N1CCCC(n2cccn2)C1 (configuration not stated)	-6.41
CC(O)CN1CCC(CNCc2cccc(C(N)=O)c2)CC1 (configuration not stated)	-4
c1cnc(-c2nc(CN3CCCC(Cn4cncn4)C3)cs2)nc1 (configuration not stated)	-11
Cc1csc(C2CCCN(C(=O)c3cc(Cl)c[nH]3)C2)n1 (configuration not stated)	-0.903
O=C(c1cccc(N2CCCC2=O)c1)N1CCCC(n2cncn2)C1 (configuration not stated)	-8.04
Cc1csc(C2CCCN(C(=O)c3cnc[nH]3)C2)n1 (configuration not stated)	-0.708
CCCn1nc2c(cc1=O)CN(CCS(C)(=O)=O)CC2	9.12
CCOc1cc(C)ccc1NC(=O)N(C)Cc1cnn(C)c1	-3.49
COc1cc(CNCc2c(C)nn(C)c2N(C)C)ccn1	-1.56
CCN1CCC(NC(=O)CN2CCCC2Cn2nc(C)cc2C)CC1 (configuration not stated)	-9.53
O=C(CCN1CCCC1C1CCCCC1)N1CCc2sccc2C1 (configuration not stated)	2.92
COCCOc1ccccc1C(=O)N1CCCCC1c1nccs1 (configuration not stated)	50.2
CCCn1nc2c(cc1=O)CN(CCCN1CCCC1=O)CC2	7.69
COCc1cccc(C(=O)N2CCCCC2c2nccs2)c1 (configuration not stated)	-8.81
CCCn1nc2c(cc1=O)CN(CCCS(N)(=O)=O)CC2	3.74
O=C(CCC(=O)N1CCCC1c1cccs1)N1CCc2sccc2C1 (configuration not stated)	2.92
CC(NC(=O)CCCOc1ccccc1)c1nnc2n1CCCCC2 (configuration not stated)	-20.9
CCc1cnc(CN2CCCC2c2noc(C3CC3)n2)o1 (configuration not stated)	-11.3
CC(C)c1nc2n(n1)CC(NCc1nnc(C(C)C)o1)CC2 (configuration not stated)	-19.6
COc1cccc(COCC(=O)N2CCCC(n3ccnc3)C2)c1 (configuration not stated)	-11.9
FC(F)(F)Cc1noc(CN2CCCC2c2noc(C3CC3)n2)n1 (configuration not stated)	-8.5
O=C(COCc1ccccc1)N1CCCC(n2cncn2)C1 (configuration not stated)	-20.7
COc1cccc(C(=O)N2CCCC(c3cc(C)[nH]n3)C2)c1OC (configuration not stated)	-17.6
Cc1cnn(CC2CCCCN2Cc2nc(-c3ccoc3)no2)c1 (configuration not stated)	-6.01
COc1cc(C(=O)N2CCCC(CNS(C)(=O)=O)C2)cc(OC)c1C (configuration not stated)	-13.5
O=C(NCc1nncn1-c1ccccc1)C1CC(=O)N(CC2CC2)C1 (configuration not stated)	-18.1

SMILES	cytotoxicity at 70.5 h [%]
COc1ccc(CNC(=O)Nc2cccnc2N2CCCC2)cc1O	-8.02
Cc1ccc(-c2ncc(C(=O)NCCNC(=O)C(C)C)s2)c(C)c1	-8.72
CCN1CCN(CC(O)c2ccc(F)cc2)CC1 (configuration not stated)	-14.7
O=C1CCC(C(=O)NCc2nncn2-c2ccccc2)CN1 (configuration not stated)	-12.6
CC(NC(=O)Nc1cc(F)ccc1N1CCCCC1)c1nncn1C (configuration not stated)	-4.36
Cc1nn(C)c(C)c1C(C)NC(=O)Nc1cccnc1N1CCCC1 (configuration not stated)	-15.8
CCOCC(O)CN1CCN(C(=O)CC(C)(C)C)CC1 (configuration not stated)	-18.5
CC(C)c1nc2n(n1)CC(NCc1nnc(-c3ccco3)o1)CC2 (configuration not stated)	-11.9
N#Cc1ccccc1OCCN1CCCC1Cn1cccn1 (configuration not stated)	-4.78
Cn1nc2c(cc1=O)CN(Cc1coc(-c3cccs3)n1)CC2	-7.48
Cc1cc(C2CCCN(C(=O)c3ccc(C)[nH]c3=O)C2)n[nH]1 (configuration not stated)	-13.9
Cc1noc(C(C)C)c1C(=O)NCCN1CCCCCC1=O	-19
Cc1nc(C)c(C(=O)NCCNc2ncccc2C#N)s1	-7.46
Cn1ccc(C(=O)NCc2cccc(CN3CCCC3)c2)cc1=O	-3.99
CCN1CCN(C(=O)NCCOc2ccc3c(c2)OCO3)CC1	-11.4
CC(O)(CN1CCC2(CC1)OCCO2)c1cccc(C(F)(F)F)c1 (configuration not stated)	-4.13
COc1ccc(C)cc1CC(=O)N1CCN(CC(C)O)CC1 (configuration not stated)	-5.05
Cn1ccc(C(=O)NCc2cccc(NC(=O)C3CCC3)c2)cc1=O	-13.3
CC(C)OCCN(C)C(C)c1cccc(S(N)(=O)=O)c1 (configuration not stated)	22.5
Cn1cc(-c2nc(CN3CCc4c(ncn4C4CC4)C3)cs2)cn1	-15.2
c1ccc(CCNC2CCc3ncnn3C2)nc1 (configuration not stated)	3.59
CC(C)c1nc(CN(C)C2CCN(CCNS(C)(=O)=O)C2)no1 (configuration not stated)	32.3
COc1c(CNC2CCc3c(F)cccc32)c(C)nn1C (configuration not stated)	-7.24
Cc1cccc(CNC2CCCc3c2cnn3C)c1 (configuration not stated)	-6.91
